One data set concerns the target MDM2-GST (Homo sapiens, UniProt Q00987). As to the kind of experiment: Bacterial surface display. Particulars: for BSD Kd Ratio (NS/S): non-stabilized / stabilized Kd on bacterial surface. It counts as binding.
A short description of data set [1]: Circular dichroism helicity. The class given is physicochemical. Particulars: for Helicity, Stabilized (S): CD, 10 μM in 1:1 water:acetonitrile, molar ellipticity at 222 nm, stabilized peptide. Background: Circular dichroism is widely used to follow secondary structure.
Data set [2] addresses MDM2 truncate (residues 10–118) (Homo sapiens, UniProt Q00987). As to the kind of experiment: Bio-layer interferometry. It counts as binding. As to conditions: non-stabilized / stabilized Kd in solution (fold improvement upon stabilization). Background: BLI is a label-free optical method that tracks binding on a fibre tip over time.

Sequence of MDM2-GST (Q00987 whole entry): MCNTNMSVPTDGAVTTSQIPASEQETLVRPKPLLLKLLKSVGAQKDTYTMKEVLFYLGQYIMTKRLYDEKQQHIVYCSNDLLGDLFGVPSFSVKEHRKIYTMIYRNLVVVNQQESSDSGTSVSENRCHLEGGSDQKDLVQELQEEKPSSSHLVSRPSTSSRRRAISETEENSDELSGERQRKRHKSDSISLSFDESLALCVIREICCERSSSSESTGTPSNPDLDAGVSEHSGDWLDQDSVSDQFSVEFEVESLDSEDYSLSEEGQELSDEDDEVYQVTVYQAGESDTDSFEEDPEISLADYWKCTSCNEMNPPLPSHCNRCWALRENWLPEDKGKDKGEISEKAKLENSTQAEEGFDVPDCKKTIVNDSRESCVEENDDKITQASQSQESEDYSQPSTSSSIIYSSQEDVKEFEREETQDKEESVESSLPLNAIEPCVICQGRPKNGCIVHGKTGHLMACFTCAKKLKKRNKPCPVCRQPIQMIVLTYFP
Sequence of MDM2 truncate (residues 10–118) (Q00987 10-118): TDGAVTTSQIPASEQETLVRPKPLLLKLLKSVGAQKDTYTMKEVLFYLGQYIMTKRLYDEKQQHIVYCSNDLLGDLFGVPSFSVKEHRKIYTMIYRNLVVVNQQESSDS

Take “ETAXDLWRLLXEN (sidechain bridge or staple) [SPD-M0-E(−2)-F19A]”: the “binding as displayed on the bacterial cell surface” value on MDM2-GST (negative controls, Figure S1) was “did not exhibit measurable binding”. For the same sequence, the “Helicity, Stabilized (S)” value in data set [1] stood at 50%.

“ETFXDLWRLLXEN (sidechain bridge or staple) [SPD-M0-E(−2)]”: the “Helicity, Stabilized (S)” value in data set [1] came to 53%.

As to “GGTFXGYWADLXAF (sidechain bridge or staple) [SPD-M3-G1]”, on MDM2-GST (bacterial surface, stabilized, after 3 rounds of sorting, n = 3 independent trials of duplicates), the “improvement in affinity over the starting sequence SPD-M0-E(−2)” value was approximately 5 fold. In addition, the “BSD Kd Ratio (NS/S)” value on MDM2-GST was determined as 1.4. The “BLI Kd Ratio (NS/S)” value in data set [2] came out at 4.1. The “Helicity, Stabilized (S)” value in data set [1] amounted to 18%. Also, the “Helicity Ratio (S/NS)” value in data set [1] (stabilized / non-stabilized helicity) is 1.1.

With “QTFXDLWRLLXEN (sidechain bridge or staple) [SPD-M0-E(−1)]”, in data set [1], the “Helicity, Stabilized (S)” value stood at 40%.

Take “QTFXDLWRLLXQN (sidechain bridge or staple) [SPD-M0-E(0)]”: the “Helicity, Stabilized (S)” value in data set [1] was found to be 41%.

As for “VLSFXDYWNLLXGS (sidechain bridge or staple) [SPD-M3-V1]”, the “BSD Kd Ratio (NS/S)” value at MDM2-GST is on record as 6.6. The “BLI Kd Ratio (NS/S)” value in data set [2] stood at 9.4.

The values are drawn from paper PMC7304070 (Journal of the American Chemical Society, 2020).
